PubChem BioAssay (NCI)
Where “and” joins values, the source holds several entries; their conditions need not be identical. Equal entries are not always repeated.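 Briefly, cells in 96-well plates were exposed to five compound concentrations for 48 h, and endpoints were estimated by linear interpolation. GI50: concentration for 50% inhibition of growth. TGI denotes the concentration required for complete inhibition of growth.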

Columns and labels:
Assay in all cases: growth of human tumour cells (NCI), 48 h
SW-620 colon = system: SW-620 colon
LOX IMVI melanoma = system: LOX IMVI melanoma
SK-MEL-2 melanoma = system: SK-MEL-2 melanoma
COLO 205 colon = system: COLO 205 colon
SR leukemia = system: SR leukemia
MCF7 breast = system: MCF7 breast
NCI-H522 lung = system: NCI-H522 lung
SK-MEL-5 melanoma = system: SK-MEL-5 melanoma
TK-10 renal = system: TK-10 renal
OVCAR-3 ovarian = system: OVCAR-3 ovarian

SMILES | GI50 (SW-620 colon) | TGI (SW-620 colon) | GI50 (LOX IMVI melanoma) | TGI (LOX IMVI melanoma) | GI50 (SK-MEL-2 melanoma) | TGI (SK-MEL-2 melanoma) | GI50 (COLO 205 colon) | TGI (COLO 205 colon) | GI50 (SR leukemia) | TGI (SR leukemia) | GI50 (MCF7 breast) | TGI (MCF7 breast) | GI50 (NCI-H522 lung) | TGI (NCI-H522 lung) | GI50 (SK-MEL-5 melanoma) | TGI (SK-MEL-5 melanoma) | GI50 (TK-10 renal) | TGI (TK-10 renal) | GI50 (OVCAR-3 ovarian) | TGI (OVCAR-3 ovarian)
CS(=O)(=O)N1CCC(Nc2ncc(C(=O)c3c(F)cccc3F)c(N)n2)CC1 | 5730 nM | > 25 µM | 9900 nM | > 25 µM | > 20.9 µM | > 25 µM | 6260 nM | > 25 µM | 3790 nM | > 18.5 µM | 2110 nM | > 25 µM | > 13100 nM | > 25 µM | 7650 nM | > 25 µM | 7.98 µM | > 25 µM | 13700 nM | > 25 µM
O=C(/C=C(/C=C/c1cccc2[nH]ccc12)OB(F)F)/C=C/c1cccc2[nH]ccc12 | 393 nM | 1.58 µM | 348 nM | 1.02 µM | 2.09 µM | 5.63 µM | 771 nM | 3.15 µM | 460 nM | > 100 µM | 436 nM | 9.45 µM | 359 nM | 2.24 µM | 1260 nM | 2.73 µM | 1.93 µM | 7.42 µM | 353 nM | 1.23 µM
Nc1c(C(=O)Nc2cccc(Cl)c2)sc2nc3c(cc12)C(O)CCC3 (stereo not drawn) | 480 nM | > 89.3 µM | 762 nM | 52.1 µM | 0.585 µM | 48.6 µM | 348 nM | 3.53 µM | 258 nM | 28.6 µM | 344 nM | 53.4 µM | 434 nM | 23.6 µM | 375 nM | 18.3 µM | 10.8 µM | 36.8 µM | 311 nM | 1.22 µM
O=C(O)c1ccc(CSc2nc3ccccc3[nH]2)cc1 | > 100000 nM | > 100 µM | > 100000 nM | > 100 µM | > 100 µM | > 100 µM | > 100000 nM | > 100 µM | > 100000 nM | > 100 µM | > 100000 nM | > 100 µM | > 100000 nM | > 100 µM | > 100000 nM | > 100 µM | > 100 µM | > 100 µM | > 100000 nM | > 100 µM
COc1ccc(-c2nc3sccn3c2-c2ccnc(NCCNS(=O)(=O)c3ccc(C(F)(F)F)cc3)n2)cc1 | 4240 nM | 38.9 µM | 3260 nM | 19.2 µM | 3.04 µM | 9.26 µM | 3290 nM | > 100 µM | 972 nM | > 100 µM | 3150 nM | > 100 µM | 2810 nM | 17 µM | 1240 nM | 2.52 µM | 2.87 µM | > 100 µM | 2030 nM | > 100 µM
COc1ccccc1CNCCCN1C(=O)c2ccc3c4c(ccc(c24)C1=O)C(=O)N(CCCNCCCCNCCCN)C3=O | 260 nM | 1.28 µM | 300 nM | 1.57 µM | 0.227 µM | 0.591 µM | 168 nM | 0.317 µM | 322 nM | > 23.2 µM | 200 nM | 0.466 µM | 176 nM | 0.362 µM | 159 nM | 0.302 µM | 0.959 µM | 6.28 µM | 261 nM | 0.699 µM
CC[C@]12C=CCN3CC[C@]4(C(=C(C(=O)OC)C1)Nc1cc5c(cc14)[C@@H]1[C@H](O5)[C@@H](O)[C@@]4(CC)CC(C(=O)OC)=C5Nc6ccccc6[C@@]56CCN1[C@@H]46)[C@@H]32 | 868 nM and 495 nM | 13.5 µM and 7.85 µM | 390 nM | 2.35 µM | 1.13 µM and 1.18 µM | 25 µM and > 100 µM | 69.5 nM | 2.78 µM | 92.2 nM and 146 nM | 25 µM and > 100 µM | 144 nM and 275 nM | 25 µM and 26.6 µM | 202 nM and 312 nM | 2.75 µM and 5.33 µM | 662 nM and 348 nM | 4.01 µM and 1.48 µM | 0.185 µM and 0.402 µM |  | 240 nM and 255 nM | 1.13 µM and 1.29 µM
CC(C)(C)N1CC1CNC(=O)C(=O)NCC1CN1C(C)(C)C (stereo not drawn) |  | > 11 µM |  | > 54.1 µM |  | 10.2 µM |  | 8.5 µM |  | 13.3 µM |  | > 100 µM |  | 2.15 µM |  | 45.2 µM |  | > 100 µM |  | 46.1 µM
Nc1nc(N)c2cc(S(=O)(=O)c3ccc4ccccc4c3)ccc2n1 | 611 nM | > 100 µM |  | > 100 µM |  | > 77.8 µM | 6370 nM | > 100 µM | > 100000 nM | > 100 µM | 5170 nM | > 100 µM |  | > 93 µM |  | > 65.7 µM |  | > 81.2 µM |  | > 100 µM
CCN1C(=O)/C(=c2\sc3n(c2=O)C2C(NN=3)N(CC)C(=O)N2CC)c2ccccc21 (stereo not drawn) | 426 nM | > 100 µM | 666 nM | 26.6 µM | 3.21 µM | 44.2 µM | 468 nM | 11.3 µM | 357 nM | > 100 µM | 357 nM | > 100 µM | 384 nM | 6.99 µM | 463 nM | 7.44 µM | 5.97 µM | 24.6 µM | 323 nM | 3.32 µM
NS(=O)(=O)c1ccc(N=Nc2c(O)[nH]c3ccc(C(=O)NCCCn4ccnc4)cc23)cc1 | > 25000 nM | > 25 µM | > 25000 nM | > 25 µM | > 25 µM | > 25 µM | > 25000 nM | > 25 µM | > 25000 nM | > 25 µM | > 25000 nM | > 25 µM | > 25000 nM | > 25 µM | > 25000 nM | > 25 µM | > 25 µM | > 25 µM | > 25000 nM | > 25 µM
Cc1cc(O)ccc1C1(c2ccc(O)cc2C)OC(=O)c2ccccc21 | 16900 nM | 35.8 µM | 18500 nM | 37.7 µM | 18.4 µM | 33.8 µM | 16800 nM | 32.3 µM | 30300 nM | > 100 µM | 18100 nM | 36.5 µM | 18500 nM | 35 µM | 18000 nM | 32.1 µM | 17 µM | 30.8 µM | 16400 nM | 30.1 µM
Cc1nc2ccc(-n3ncc(C(=O)c4cc5ccccc5[nH]4)c3N)cc2[nH]1 | 7780 nM | > 100 µM | 2570 nM | 15.2 µM | 25.9 µM | 88.5 µM | 4770 nM | 29.1 µM | 2820 nM | 31.2 µM | 4520 nM | > 100 µM | 10100 nM | 33.3 µM | 5460 nM | 18.4 µM | 18.4 µM | > 100 µM | 11200 nM | > 100 µM
Cc1[nH]c(C(=O)Nc2cccc(OC3CCNCC3)c2)c(Cl)c1Cl | 1880 nM | 3.64 µM | 1660 nM | 3.16 µM | 2.14 µM | 4.54 µM | 1930 nM | 4.02 µM | 2020 nM | 5.09 µM | 1500 nM | 3.05 µM | 1860 nM | 4.02 µM | 1780 nM | 3.23 µM | 1.94 µM | 3.7 µM | 1970 nM | 4.01 µM
CSC1=CC(=O)c2ccccc2C1=O | 2490 nM | 8.13 µM | 1750 nM | 3.92 µM | 11.6 µM | 33.7 µM | 1990 nM | 3.65 µM | 3110 nM | 8.98 µM | 1720 nM | 3.65 µM | 2020 nM | 4.16 µM | 5740 nM | 19 µM | 2.66 µM | 5.5 µM | 1780 nM | 3.37 µM
COc1cc(/C=C2\CCC/C(=C\c3cc(CN4CCCC4)c(O)c(OC)c3)C2=O)cc(CN2CCCC2)c1O | 3620 nM | 12.9 µM | 1740 nM | 3.36 µM | 5.09 µM | 19.5 µM | 1190 nM | 2.76 µM | 2560 nM | 11.8 µM | 4820 nM | 23.6 µM | 2500 nM | 7.92 µM | 4120 nM | 15.5 µM | 4.36 µM | 15.5 µM | 3890 nM | 13.8 µM
Cn1cc(-c2csc(-c3ccccc3)n2)c2cccnc21 | 14900 nM | 30.1 µM | 12800 nM | 25.4 µM | 18.5 µM | 42.3 µM | 14000 nM | 26.9 µM | 9240 nM | 62.4 µM | 12600 nM | 33.8 µM | 14100 nM | 33.3 µM | 13700 nM | 26.6 µM | 17.9 µM | 39.1 µM | 16300 nM | 32 µM
O=C(CCN1CCCCC1)c1csc2ccccc12 |  | > 100 µM |  | > 100 µM |  | > 100 µM |  | > 100 µM |  | > 100 µM |  | 48.1 µM |  | > 100 µM |  | > 100 µM |  | > 100 µM |  | > 100 µM
COC(=O)C1C(C(=O)O)C2(c3ccccc3)C(=O)C1(c1ccccc1)C(c1ccc(OC)cc1)=C2c1ccc(OC)cc1 (stereo not drawn) | 23200 nM | 46.6 µM | 33200 nM | > 100 µM | 20.5 µM | 44 µM | 16400 nM | 38.8 µM | 27200 nM | 63 µM | 20300 nM | 38.9 µM | 17000 nM | 41.9 µM | 16800 nM | 32.4 µM | 31.8 µM | > 100 µM | 17300 nM | 41.2 µM
